Test results: PubChem BioAssay AID602191 (Broad Institute, 2012)
Calls of active or inactive are those of the source.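 The calls were made as follows: active = fitted curve reaches 40% activation at a concentration no higher than the top valid tested dose; inconclusive = flat fit between 30% and 70% activation, or poor fit; inactive = uptake decrease, flat fit within 30% of zero, the rest.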 Residues, ends and D or L forms follow the SMILES beside them.

These compounds were tested against Scavenger receptor class B member 1 (Mus musculus) (UniProt Q61009) (assay: activators of SR-BI-mediated HDL uptake, dose response, cell-based, ldlA[mSR-BI] CHO, DiI fluorescence, cherry-pick (AID 602191;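 also: cell fluorescence from internalized DiI-labeled HDL after washing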;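 as to AC40: potency of activators raising HDL uptake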;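 as to activation (HDL uptake increase): 0% = median of DMSO wells and 100% = twice the DMSO signal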)). Conditions: ldlA[mSR-BI] CHO cells, 3 h.
Scavenger receptor class B member 1 (Mus musculus), sequence (Q61009 whole entry, looked up): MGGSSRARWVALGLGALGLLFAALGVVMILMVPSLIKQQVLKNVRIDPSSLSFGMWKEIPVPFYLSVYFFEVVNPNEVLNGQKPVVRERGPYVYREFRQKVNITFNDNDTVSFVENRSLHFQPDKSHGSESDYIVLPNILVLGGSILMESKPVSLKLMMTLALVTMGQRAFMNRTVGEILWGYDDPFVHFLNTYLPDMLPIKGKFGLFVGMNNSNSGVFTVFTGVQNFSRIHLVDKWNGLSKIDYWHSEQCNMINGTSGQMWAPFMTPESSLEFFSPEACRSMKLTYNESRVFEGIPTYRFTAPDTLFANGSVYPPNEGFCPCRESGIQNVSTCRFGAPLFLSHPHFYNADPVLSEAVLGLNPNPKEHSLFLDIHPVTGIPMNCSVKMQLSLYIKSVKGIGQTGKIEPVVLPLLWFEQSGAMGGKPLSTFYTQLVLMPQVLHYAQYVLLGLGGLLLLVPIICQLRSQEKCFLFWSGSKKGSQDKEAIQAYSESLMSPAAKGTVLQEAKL
In the case of `O=C(CC1NC(=O)NC1=O)Nc1ccc(Cl)cc1` (centres undefined), the AC40 is reported as > 35 µM (inactive).
With `C[C@H](CO)N1C[C@H](C)[C@@H](CN(C)S(=O)(=O)c2ccccc2)Oc2ccc(NC(=O)Nc3ccc(C(F)(F)F)cc3)cc2C1=O` the AC40 was 34.6 µM.
With `O=C(C[C@H]1C[C@H](C(=O)N2CCCCC2)[C@@]2(CCc3ccccc3)c3[nH]c4ccc(Cl)cc4c3CCN2C1=O)NCCc1ccccn1` the AC40 was > 35 µM (inactive).
With `NC(=O)c1ncn([C@@H]2O[C@H](CN=C3NS(=O)(=O)c4ccccc43)[C@@H](O)[C@H]2O)n1` the AC40 was > 35 µM (inactive).
Work on `Cc1ccc(S(=O)(=O)Nc2ccc3c(c2)C(=O)N([C@H](C)CO)C[C@H](C)[C@@H](CN(C)Cc2ccc(-c4ccccc4)cc2)O3)cc1` yielded an AC40 of 35 µM.
With `NCCCC[C@H]1CNC(=O)C(=O)N1CCc1cccc(F)c1` the AC40 was > 35 µM (inactive).

Same assay, conditions: ldlA[mSR-BI] CHO cells, 3 h, at 35 µM (top of the series)
With `COc1ccc(NC(=O)COC(=O)c2cc(SC)ccc2Cl)c(OC)c1` the activation (HDL uptake increase) was -14.1% (inactive).
For `C[C@H](CO)N1C[C@H](C)[C@H](CN(C)Cc2ccc(-c3ccccc3)cc2)Oc2ccc(NS(=O)(=O)c3ccccc3)cc2CC1=O`, the activation (HDL uptake increase) was 44.6% (inactive).
`COc1ccc(C(=O)NC(=O)CSc2nc3nc(C)cc(C)n3n2)cc1` was tested, and the activation (HDL uptake increase) was -8.5% (inactive).
For `O=C(O)CCc1nnc(SCC(=O)Nc2cccc(C(F)(F)F)c2)[nH]c1=O`, the activation (HDL uptake increase) was -1.57% (inactive).
`CCO[C@H]1OC(C(=O)N2CCOCC2)=C[C@@H](c2ccccc2)[C@@H]1CCCO` was tested, and the activation (HDL uptake increase) was -6.57% (inactive).
For `COc1ccccc1NC(=O)CCC(=O)OCc1cccc([N+](=O)[O-])c1`, the activation (HDL uptake increase) was -10.7% (inactive).
In the case of `CCCCNC(=O)CCCCC(=O)N/N=C/c1cccc(Cl)c1`, the activation (HDL uptake increase) is reported as -17.4% (inactive).
For `O=C(NCc1cccc(Cl)c1)c1ccc(CS(=O)Cc2ccccc2Cl)o1` (centres undefined), the activation (HDL uptake increase) was 0.636% (inactive).
In the case of `CC1(C)NC(=O)N(CC(=O)N2CCN(S(=O)(=O)c3ccccc3C(F)(F)F)CC2)C1=O`, the activation (HDL uptake increase) is reported as -6.43% (inactive).
In the case of `CC(C)COC(=O)Cc1c(O)c2ccccc2[nH]c1=O`, the activation (HDL uptake increase) is reported as -2.53% (inactive).
With `CN1CCN(C(=O)C2CCCN(S(=O)(=O)c3ccc(Br)cc3)C2)CC1` (centres undefined) the activation (HDL uptake increase) was -5.87% (inactive).
`CCc1cccc(N(C(=O)c2csnn2)C(C(=O)NC2CCCC2)c2cccnc2)c1` (centres undefined) was tested, and the activation (HDL uptake increase) was 6.32% (inactive).
In the case of `Cc1ccc(CN2CCNC(=O)C2CC(=O)N2CCN(c3ncccn3)CC2)o1` (centres undefined), the activation (HDL uptake increase) is reported as -8.96% (inactive).
In the case of `N#Cc1ccc(OCCOCCNC2CCCC2)cc1`, the activation (HDL uptake increase) is reported as 13.4% (inactive).
In the case of `O=C1CCCC/C=C\C[C@H](CC(=O)N(CCO)Cc2ccccc2)C(=O)N2CCC[C@@H]2CO1`, the activation (HDL uptake increase) is reported as -5.56% (inactive).
In the case of `COc1ccc(N2CCN(C(=O)NC(=O)c3ccc(Cl)cc3)CC2)cc1`, the activation (HDL uptake increase) is reported as -6.64% (inactive).
With `COc1ccc(CCNC(=S)N2CCN(S(=O)(=O)c3ccc(Cl)cc3)CC2)cc1` the activation (HDL uptake increase) was 5.66% (inactive).
For `CC(C)C[C@H]1CNC(=S)N1CC1CCCN1C[C@H](Cc1ccccc1)N1C[C@H](Cc2ccc(O)cc2)N(CC2CCCCC2)C1=S` (some centres undefined), the activation (HDL uptake increase) was -0.934% (inactive).
With `O=C1N(C2CCCC2)C[C@@H]2C[C@@H](c3cn[nH]c3-c3ccc(Cl)cc3)N3CCC[C@@]123` the activation (HDL uptake increase) was 0.818% (inactive).
In the case of `C=CCC[C@@H](Cc1ccc(F)cc1)C(=O)OC[C@@H](Cc1c[nH]c2ccccc12)NC(=O)[C@@H](CC=C)CC(=O)N[C@@H](CO)Cc1ccccc1`, the activation (HDL uptake increase) is reported as 47.8% (inactive).
`O=C(CCNS(=O)(=O)c1cccs1)N1CCc2ccccc2C1` was tested, and the activation (HDL uptake increase) was -0.366% (inactive).
In the case of `Cc1ccc(S(=O)(=O)N(CCC(=O)NCC(c2ccccc2)N(C)C)c2ccccc2)cc1` (centres undefined), the activation (HDL uptake increase) is reported as -5.72% (inactive).
For `COc1ccc(-n2nc(C(=O)N3CCN(Cc4ccc5c(c4)OCO5)CC3)c3ccccc3c2=O)cc1`, the activation (HDL uptake increase) was -5.05% (inactive).
In the case of `CCc1nn(CC(=O)N2CCN(CC)CC2)c(=O)c2cccn12`, the activation (HDL uptake increase) is reported as -9.62% (inactive).
In the case of `O=C(Nc1ccc(S(=O)(=O)Nc2ccccc2F)cc1)N1CCCCC1`, the activation (HDL uptake increase) is reported as -17.5% (inactive).
In the case of `O=S(=O)(c1ccccc1)N1CCN(Cc2c(O)ccc3ccccc23)CC1`, the activation (HDL uptake increase) is reported as -12% (inactive).
For `CCN1CCN(C(=O)CCc2nc3ccccc3c(=O)[nH]2)CC1`, the activation (HDL uptake increase) was 9.34% (inactive).
With `Cc1ncc(CN2CCC(n3nccc3NC(=O)c3ccccc3)CC2)s1` the activation (HDL uptake increase) was 8.83% (inactive).
`O=C(COC(=O)C1CCCCC1)Nc1cccc(Br)c1` was tested, and the activation (HDL uptake increase) was -5.26% (inactive).
`CC(Sc1ccc(S(=O)(=O)N(C)C)cn1)C(=O)NC1CCCC1` (centres undefined) was tested, and the activation (HDL uptake increase) was -1.21% (inactive).
With `CSCCC(NC(=O)c1ccco1)C(=O)NCc1ccc(F)cc1` (centres undefined) the activation (HDL uptake increase) was -8.99% (inactive).
For `O=C(CSc1nnc(Cc2cccs2)n1-c1ccccc1)NC1CCCCC1`, the activation (HDL uptake increase) was -15.7% (inactive).
In the case of `Cc1ccc(C(=O)N/C(=C/c2ccccc2)C(=O)NC(Cc2ccccc2)C(=O)O)cc1` (centres undefined), the activation (HDL uptake increase) is reported as 8.63% (inactive).
In the case of `CCCCn1c(=N)n(CCOc2ccc(C)cc2)c2ccccc21`, the activation (HDL uptake increase) is reported as -6.96% (inactive).
`O=C(CCCCCN1C(=O)c2ccccc2C1=O)Nc1ccc(C(=O)O)cc1` was tested, and the activation (HDL uptake increase) was -6.25% (inactive).
`Cc1c(C)c2ccc(OCC(=O)NC(Cc3c[nH]c4ccc(O)cc34)C(=O)O)c(C)c2oc1=O` (centres undefined) was tested, and the activation (HDL uptake increase) was -0.695% (inactive).
For `COc1ccccc1C(=O)NCC(=O)NCc1cc(=O)n(C)c(=O)n1C`, the activation (HDL uptake increase) was -3.18% (inactive).
For `COC1CCCN(Cc2c(C(=O)N3CCN(C4CCCCC4)CC3)nc3ccccn23)C1` (centres undefined), the activation (HDL uptake increase) was -7.41% (inactive).
For `CC(CN(C)Cc1ccccc1)OC(=O)c1cccc(F)c1` (centres undefined), the activation (HDL uptake increase) was -8.97% (inactive).
For `CN1CCN(CCC(=O)Nc2ccccc2Cl)CC1`, the activation (HDL uptake increase) was -8.52% (inactive).
In the case of `COc1ccc(NC(=O)CN(C)C(=O)C2(c3ccccc3)CCCC2)cc1`, the activation (HDL uptake increase) is reported as -15.3% (inactive).
For `COc1ccc(Cn2c(N)c(S(=O)(=O)c3cccs3)c3nc4ccccc4nc32)cc1`, the activation (HDL uptake increase) was -19.6% (inactive).
For `O=C(CCNC(=O)c1ccccc1Cl)NCC(c1ccc(F)cc1)N1CCOCC1` (centres undefined), the activation (HDL uptake increase) was -2.65% (inactive).
In the case of `O=C1C2C(c3ccccc3)CC=CC2[C@H](c2ccc(C(F)(F)F)cc2)N1Cc1ccccc1` (some centres undefined), the activation (HDL uptake increase) is reported as -16.7% (inactive).
`Cc1ccc(N(C)C(=O)CN(C)S(=O)(=O)c2ccc3c(c2)n(C)c(=O)c(=O)n3C)cc1` was tested, and the activation (HDL uptake increase) was 8.76% (inactive).
In the case of `Cc1nn(CC(=O)OC(C)C(=O)Nc2ccccc2[N+](=O)[O-])c(C)c1[N+](=O)[O-]` (centres undefined), the activation (HDL uptake increase) is reported as -9.77% (inactive).
With `CC(C)(C)NC(=O)C[C@H]1C[C@H](C(=O)N2CCOCC2)[C@@]2(CCC3CCCC3)c3[nH]c4cc(-c5ccco5)ccc4c3CCN2C1=O` the activation (HDL uptake increase) was -1.73% (inactive).
`CC(C)CCNCC(=O)NC(c1ccccc1)c1ccccc1` was tested, and the activation (HDL uptake increase) was -2.56% (inactive).
With `CN1CCN(C(=O)c2ccccc2NC(=O)c2ccccc2Br)CC1` the activation (HDL uptake increase) was -7.48% (inactive).
`CCCCCC(=O)Nc1cc(S(=O)(=O)N2CCOCC2)ccc1N1CCCCC1` was tested, and the activation (HDL uptake increase) was -0.494% (inactive).
For `COC(=O)C(Cc1ccc(O)cc1)NC(=O)C1CCN(S(=O)(=O)c2ccc(C)cc2)CC1` (centres undefined), the activation (HDL uptake increase) was -2.45% (inactive).
In the case of `O=C(CC(c1ccccc1)c1ccco1)Nc1nccs1` (centres undefined), the activation (HDL uptake increase) is reported as 4.67% (inactive).
`COc1cc(C(CCN2CCCC(C)C2)c2c(OC)cc(OC)c3c(-c4ccccc4)cc(=O)oc23)cc(OC)c1OC` (centres undefined) was tested, and the activation (HDL uptake increase) was -1.55% (inactive).
For `NC(=O)C1CCN(C(=O)c2ccc(NS(=O)(=O)c3ccc(F)c(F)c3)cc2)CC1`, the activation (HDL uptake increase) was -2.55% (inactive).
`CCc1ccc(C(=O)CN2C(=O)NC(C)(CCc3ccccc3)C2=O)cc1` (centres undefined) was tested, and the activation (HDL uptake increase) was -8.25% (inactive).
With `CCc1ccc2[nH]c(=O)c(CN(CCN(C)C)C(=O)Nc3ccccc3OC)cc2c1` the activation (HDL uptake increase) was -2.31% (inactive).
With `C[C@H](NC(=O)c1nc[nH]c1C(=O)NCc1ccccc1)c1ccccc1` the activation (HDL uptake increase) was -1.54% (inactive).
With `O=C(Cn1c(=O)cnc2ccccc21)NNC(=O)c1ccc(Cl)cc1` the activation (HDL uptake increase) was -5.85% (inactive).
For `O=C1CCN(S(=O)(=O)c2ccccc2)CCN1CCOCc1cccc(F)c1`, the activation (HDL uptake increase) was 7.83% (inactive).
For `CCN1CCN(C(CNS(=O)(=O)c2ccc(Br)cc2)c2cccnc2)CC1` (centres undefined), the activation (HDL uptake increase) was -1.44% (inactive).
In the case of `CCCN1CCC(NC(=O)C2CCCCC2C(=O)O)CC1` (centres undefined), the activation (HDL uptake increase) is reported as -8.02% (inactive).
In the case of `CC[C@H](C)[C@@H]1NC(=O)[C@H]([C@@H](C)CC)NC(=O)[C@@H](CC(C)C)NC(=O)[C@H](Cc2ccccc2)NC(=O)[C@H](Cc2ccccc2)NC(=O)[C@@H]2CCCN2C(=O)[C@@H]2CCCN2C(=O)[C@H](C(C)C)NC(=O)[C@H](CC(C)C)NC1=O` (HELM PEPTIDE1{F.F.[dL].I.I.L.V.P.P}$PEPTIDE1,PEPTIDE1,1:R1-9:R2$$$V2.0), the activation (HDL uptake increase) is reported as 5.97% (inactive).
In the case of `COc1ccc(N2C(=O)C(CC(=O)Nc3ccc(F)cc3)N(CCc3cccs3)C2=O)cc1` (centres undefined), the activation (HDL uptake increase) is reported as -4.44% (inactive).
With `O=C(COc1ccccc1Cc1ccccc1)Nc1cccnc1` the activation (HDL uptake increase) was -14.9% (inactive).
For `O=C(N1CCN(S(=O)(=O)c2ccc(Cl)cc2)CC1)n1ccnc1`, the activation (HDL uptake increase) was -2.88% (inactive).
For `CCOC(=O)C1CCCN(S(=O)(=O)c2ccc(S(=O)(=O)N3CCCC3)cc2)C1` (centres undefined), the activation (HDL uptake increase) was -3.5% (inactive).
With `COc1cccc(CC(=O)Nc2ccccc2C(=O)N2CCOCC2)c1` the activation (HDL uptake increase) was 1.38% (inactive).
In the case of `Cc1c(C(=O)N(C)C(C)c2ccncn2)oc2c(F)cccc12` (centres undefined), the activation (HDL uptake increase) is reported as -9.31% (inactive).
`COc1ccc2c(c1)C(C)(CCN)C(=O)N2C` (centres undefined) was tested, and the activation (HDL uptake increase) was -0.472% (inactive).
With `COc1ccc(C(=O)NCc2nnc(SCC(=O)NCc3ccc(F)cc3)o2)cc1` the activation (HDL uptake increase) was -16% (inactive).
For `CCN1CCN(C(c2cccc(OC)c2)c2sc3nc(C)nn3c2O)CC1` (centres undefined), the activation (HDL uptake increase) was -1.19% (inactive).
In the case of `COc1ccc(C(=O)NNS(=O)(=O)c2ccccc2)cc1OC`, the activation (HDL uptake increase) is reported as -10.5% (inactive).
`CCOC(=O)N1CCC(N2C(=O)c3ccccc3C2Nc2cc(OC)c(OC)c(OC)c2)CC1` (centres undefined) was tested, and the activation (HDL uptake increase) was 13% (inactive).
